Earlier results, collected in patent US20250312353A1, “DRUG R[…] TREATMENT OF […] MALFORMATIONS” (University of South Carolina, priority 2024, published 2025).

What was measured:
host macrophage = settings: bacterial infection
[1] = system: human lung tumor associated endothelial cell; settings: on matrigel; even in the presence of VEGF

COc1nc2ccc(Br)cc2cc1[C@@H](c1ccccc1)[C@@](O)(CCN(C)C)c1cccc2ccccc12 [bedaquiline]
effect on host macrophage innate immune resistance (host macrophage): activate host macrophage innate immune resistance to bacterial infection | effect on capillary network formation [1]: inhibit capillary network formation
